Measured values published in ChEMBL document CHEMBL2146420, “RXR Partial Agonist CBt-PMN Exerts Therapeutic Effects on Type 2 Diabetes without the Side Effects of RXR Full Agonists” (ACS Med Chem Lett, 2012).
Active and inactive are the calls of the source. The calls are words filed in the database; no cut-off is given here.

Key:
[1] = target: RXR alpha/PPAR gamma (Homo sapiens) (UniProt P37231+P19793); assay: Agonist activity at PPARgamma/RXRalpha expressed in […] Cos1 cells after 18 hrs by SEAP reporter gene assay; assay type: functional, cell-based
[2] = tested on: Serum; assay: Drug level in ICR mouse serum at 30 mg/kg, po; assay type: ADME, organism-based; parameters: dose 30 mg/kg, route oral; details: in vivo, read-out: Drug uptake
[3] = target: Retinoic acid receptor RXR-alpha/oxysterols receptor LXR-alpha (Homo sapiens) (UniProt P19793+Q13133); assay: Agonist activity at LXRalpha/RXRalpha expressed in […] Cos1 cells after 18 hrs by SEAP reporter gene assay; assay type: functional, cell-based
[4] = target: T1, Peroxisome proliferator-activated receptor gamma (Homo sapiens) (UniProt P37231); assay: Agonist activity at PPARgamma expressed in […] Cos1 cells after 18 hrs by SEAP reporter gene assay; assay type: functional, cell-based
T1 sequence (whole entry): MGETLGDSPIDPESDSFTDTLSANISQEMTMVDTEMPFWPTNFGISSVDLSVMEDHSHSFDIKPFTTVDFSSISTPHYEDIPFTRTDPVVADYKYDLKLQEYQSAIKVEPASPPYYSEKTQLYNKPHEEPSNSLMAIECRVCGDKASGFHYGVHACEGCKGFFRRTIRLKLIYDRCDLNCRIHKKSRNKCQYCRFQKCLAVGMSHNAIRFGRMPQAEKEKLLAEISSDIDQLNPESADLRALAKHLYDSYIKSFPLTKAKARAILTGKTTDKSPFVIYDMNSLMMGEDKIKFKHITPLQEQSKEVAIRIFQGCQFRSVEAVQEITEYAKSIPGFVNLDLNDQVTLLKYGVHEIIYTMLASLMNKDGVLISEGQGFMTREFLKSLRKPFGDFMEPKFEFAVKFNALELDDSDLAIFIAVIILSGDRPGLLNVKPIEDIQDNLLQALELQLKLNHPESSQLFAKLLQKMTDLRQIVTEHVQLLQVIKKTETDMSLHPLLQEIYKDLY

[5] = target: T2, Retinoic acid receptor RXR-alpha (Homo sapiens) (UniProt P19793); assay: Agonist activity at RXRalpha expressed in […] Cos1 cells after 18 hrs by SEAP reporter gene assay; assay type: functional, cell-based
T2 sequence (whole entry): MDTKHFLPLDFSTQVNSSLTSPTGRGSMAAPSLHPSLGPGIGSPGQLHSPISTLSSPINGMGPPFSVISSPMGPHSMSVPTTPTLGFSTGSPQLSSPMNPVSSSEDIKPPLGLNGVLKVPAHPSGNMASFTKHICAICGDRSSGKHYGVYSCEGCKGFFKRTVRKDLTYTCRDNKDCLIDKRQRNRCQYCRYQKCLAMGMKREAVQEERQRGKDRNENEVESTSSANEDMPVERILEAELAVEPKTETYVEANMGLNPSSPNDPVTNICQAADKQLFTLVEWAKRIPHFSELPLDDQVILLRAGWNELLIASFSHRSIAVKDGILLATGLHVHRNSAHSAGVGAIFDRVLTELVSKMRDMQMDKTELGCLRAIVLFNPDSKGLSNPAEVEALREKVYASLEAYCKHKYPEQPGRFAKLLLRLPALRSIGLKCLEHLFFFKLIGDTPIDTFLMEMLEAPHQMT

[6] = tested on: Mus musculus; assay: Toxicity in ICR mouse assessed as increase in liver weight at 30 mg/kg/day, po for 7 days relative to vehicle-treated control; assay type: organism-based; parameters: route oral; details: in vivo, 168 h
[7] = tested on: Mus musculus; assay: Toxicity in ICR mouse assessed as increase in body weight at 30 mg/kg/day, po for 7 days relative to vehicle-treated control; assay type: organism-based; parameters: route oral; details: in vivo, 168 h
[8] = tested on: Rattus norvegicus; assay: Toxicity in male Sprague-Dawley rat assessed as enlarged testes at 30 mg/kg/day, po for 28 days relative to vehicle-treated control; assay type: organism-based, Testis; parameters: route oral; details: in vivo, 672 h
[9] = target: T3, Oxysterols receptor LXR-alpha (Homo sapiens) (UniProt Q13133); assay: Agonist activity at LXRalpha expressed in […] Cos1 cells after 18 hrs by SEAP reporter gene assay; assay type: functional, cell-based
T3 sequence (whole entry): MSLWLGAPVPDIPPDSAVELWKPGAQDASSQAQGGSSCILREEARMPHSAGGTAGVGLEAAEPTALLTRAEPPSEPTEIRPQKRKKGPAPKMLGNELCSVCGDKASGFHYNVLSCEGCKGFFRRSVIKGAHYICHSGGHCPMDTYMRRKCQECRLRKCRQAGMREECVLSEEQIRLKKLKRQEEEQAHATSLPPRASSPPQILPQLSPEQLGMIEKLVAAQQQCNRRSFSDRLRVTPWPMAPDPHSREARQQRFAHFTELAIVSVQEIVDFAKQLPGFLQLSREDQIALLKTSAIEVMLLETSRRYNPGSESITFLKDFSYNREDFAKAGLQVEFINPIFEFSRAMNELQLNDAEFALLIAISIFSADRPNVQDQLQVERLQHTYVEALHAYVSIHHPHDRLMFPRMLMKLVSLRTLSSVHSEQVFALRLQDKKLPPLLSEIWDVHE

[10] = tested on: Mus musculus; assay: Toxicity in ICR mouse assessed as increase in serum triglyceride level at 30 mg/kg/day, po for 7 days relative to vehicle-treated control; assay type: organism-based; parameters: route oral; details: in vivo, 168 h
[11] = tested on: Mus musculus; assay: Downregulation of Pck mRNA expression in KK-Ay mouse liver at 10 mg/kg/day, po administered for 14 days by RT-PCR analysis; assay type: functional, organism-based
[12] = tested on: Mus musculus; assay: Upregulation of Irs1 mRNA expression in KK-Ay mouse liver at 10 mg/kg/day, po administered for 14 days by RT-PCR analysis; assay type: functional, organism-based
[13] = tested on: Mus musculus; assay: Upregulation of Srebp1c mRNA expression in KK-Ay mouse liver at 10 mg/kg/day, po administered for 14 days by RT-PCR analysis; assay type: functional, organism-based
[14] = tested on: Mus musculus; assay: Toxicity in KK-Ay mouse assessed as increase in body weight at 10 mg/kg/day, po administered for 14 days relative to vehicle-treated control; assay type: organism-based; parameters: route oral; details: in vivo, 336 h
[15] = tested on: Mus musculus; assay: Upregulation of Scd1 mRNA expression in KK-Ay mouse liver at 10 mg/kg/day, po administered for 14 days by RT-PCR analysis; assay type: ADME, organism-based; parameters: route oral; details: in vivo, 336 h
[16] = tested on: Mus musculus; assay: Upregulation of Irs2 mRNA expression in KK-Ay mouse liver at 10 mg/kg/day, po administered for 14 days by RT-PCR analysis; assay type: functional, organism-based
[17] = tested on: Mus musculus; assay: Antidiabetic activity in diabetic, obese KK-Ay mouse assessed as blood glucose level at 10 mg/kg/day, po administered for 14 days measured on day 3 after starting of dosing (reference value: 500 mg/dL); assay type: functional
[18] = tested on: Mus musculus; assay: Antidiabetic activity in diabetic, obese KK-Ay mouse assessed as increase in adiponectin level at 10 mg/kg/day, po administered for 14 days by oral glucose tolerance test; assay type: functional, organism-based
[19] = tested on: Mus musculus; assay: Upregulation of Fasn mRNA expression in KK-Ay mouse liver at 10 mg/kg/day, po administered for 14 days by RT-PCR analysis; assay type: ADME, organism-based; parameters: route oral; details: in vivo, 336 h
[20] = tested on: Mus musculus; assay: Downregulation of G6p mRNA expression in KK-Ay mouse liver at 10 mg/kg/day, po administered for 14 days by RT-PCR analysis; assay type: functional, organism-based
[21] = tested on: Mus musculus; assay: Toxicity in KK-Ay mouse assessed as increase in serum triglyceride level at 10 mg/kg/day, po administered for 14 days relative to vehicle-treated control; assay type: organism-based; parameters: route oral; details: in vivo, 336 h
[22] = tested on: Mus musculus; assay: Upregulation of Slc2a2 mRNA expression in KK-Ay mouse liver at 10 mg/kg/day, po administered for 14 days by RT-PCR analysis; assay type: functional, organism-based
[23] = tested on: Mus musculus; assay: Toxicity in KK-Ay mouse assessed as increase in total cholesterol level at 10 mg/kg/day, po administered for 14 days relative to vehicle-treated control; assay type: organism-based; parameters: route oral; details: in vivo, 336 h
[24] = tested on: Mus musculus; assay: Toxicity in KK-Ay mouse assessed as increase in liver weight at 10 mg/kg/day, po administered for 14 days relative to vehicle-treated control; assay type: organism-based; parameters: route oral; details: in vivo, 336 h
[25] = tested on: Mus musculus; assay: Upregulation of Slc2a1 mRNA expression in KK-Ay mouse liver at 10 mg/kg/day, po administered for 14 days by RT-PCR analysis; assay type: functional, organism-based

Row | Activity [1] | concentration [2] [nM] | Activity [3] | Activity [4] | Activity [9] | SMILES | Activity [6] | Activity [7] | Activity [8] | other results
1 | Active | 1000 | Active | inactive | Active | Cc1cc2c(cc1-n1c(C)nc3cc(C(=O)O)ccc31)C(C)(C)CCC2(C)C | Toxic | Toxic | Non-toxic | Activity [5]: Active
2 | Active | 1000 | Active | inactive | Active | CCN(c1ccc2c(c1)C(C)(C)CCC2(C)C)c1ccc(C(=O)O)cn1 | Toxic | Toxic | Non-toxic | Activity [10]: Toxic; Activity [11]: inactive; Activity [12]: inactive; Activity [13]: inactive; Activity [14]: Toxic; Activity [15]: Toxic; Activity [16]: inactive; Activity [17]: 300 mg/dL; Activity [18]: Active; Activity [19]: Toxic; Activity [20]: inactive; Activity [21]: Toxic; Activity [22]: inactive; Activity [23]: Toxic; Activity [24]: Toxic; Activity [25]: inactive
3 | – | 1000 | – | – | – | Cc1cc2c(cc1-n1nnc3cc(C(=O)O)ccc31)C(C)(C)CCC2(C)C | – | – | – | –
